Test results from patent US10758534B2 (Vertex Pharmaceuticals Incorporated, priority 2014, dated 2020).

Each compound was assayed against T1, F508del (Homo sapiens, UniProt P13569, DEL508-508) (assay: Protocol 1: membrane potential optical assay (FLIPR III, voltage sensing dye), identification of potentiator compounds). Conditions: Table 3, compounds of Table 1.
T1 construct: expressed in transfected cells
T1 sequence (P13569 with tags, fused parts or gaps DEL508-508): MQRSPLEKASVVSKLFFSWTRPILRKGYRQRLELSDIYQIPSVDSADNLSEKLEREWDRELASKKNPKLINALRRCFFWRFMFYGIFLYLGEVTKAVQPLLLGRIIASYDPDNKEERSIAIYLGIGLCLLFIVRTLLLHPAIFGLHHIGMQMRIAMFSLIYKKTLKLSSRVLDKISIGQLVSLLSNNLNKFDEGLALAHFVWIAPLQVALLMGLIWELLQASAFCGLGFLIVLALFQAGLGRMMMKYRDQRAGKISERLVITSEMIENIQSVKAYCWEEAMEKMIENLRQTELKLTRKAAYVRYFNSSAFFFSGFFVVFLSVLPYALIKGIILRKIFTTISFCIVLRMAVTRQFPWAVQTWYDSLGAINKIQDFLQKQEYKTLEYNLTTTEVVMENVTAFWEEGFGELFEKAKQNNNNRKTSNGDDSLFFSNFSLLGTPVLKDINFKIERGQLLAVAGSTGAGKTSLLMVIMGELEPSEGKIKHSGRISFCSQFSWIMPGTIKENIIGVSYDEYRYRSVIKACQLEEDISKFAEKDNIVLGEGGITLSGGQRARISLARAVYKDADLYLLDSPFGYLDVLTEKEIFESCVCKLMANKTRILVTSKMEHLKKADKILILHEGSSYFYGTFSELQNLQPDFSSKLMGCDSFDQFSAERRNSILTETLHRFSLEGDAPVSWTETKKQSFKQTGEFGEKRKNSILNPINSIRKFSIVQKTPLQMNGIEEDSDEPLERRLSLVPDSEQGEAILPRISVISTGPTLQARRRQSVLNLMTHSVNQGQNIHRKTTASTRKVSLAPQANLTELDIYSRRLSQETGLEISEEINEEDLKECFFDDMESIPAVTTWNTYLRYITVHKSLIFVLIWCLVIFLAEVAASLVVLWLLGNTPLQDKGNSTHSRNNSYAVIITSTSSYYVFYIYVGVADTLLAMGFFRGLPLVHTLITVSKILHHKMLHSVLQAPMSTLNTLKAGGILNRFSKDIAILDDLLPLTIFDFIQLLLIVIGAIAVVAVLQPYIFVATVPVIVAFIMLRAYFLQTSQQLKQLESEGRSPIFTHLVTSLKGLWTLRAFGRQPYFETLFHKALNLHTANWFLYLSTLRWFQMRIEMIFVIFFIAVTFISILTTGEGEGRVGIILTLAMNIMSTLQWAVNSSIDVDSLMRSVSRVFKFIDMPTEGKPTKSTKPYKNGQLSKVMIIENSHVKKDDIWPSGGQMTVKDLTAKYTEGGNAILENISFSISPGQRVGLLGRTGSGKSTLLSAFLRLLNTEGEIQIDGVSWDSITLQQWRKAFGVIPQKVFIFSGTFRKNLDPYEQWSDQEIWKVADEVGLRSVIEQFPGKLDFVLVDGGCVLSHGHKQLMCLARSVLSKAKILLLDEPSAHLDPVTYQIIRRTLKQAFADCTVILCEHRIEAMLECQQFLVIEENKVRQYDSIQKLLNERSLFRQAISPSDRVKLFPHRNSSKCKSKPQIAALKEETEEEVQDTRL
Type: cell-based
Outline: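 Read-out: change in voltage-sensing dye fluorescence (FLIPR III) as a measure of F508del conductance. Temperature-corrected (27° C, 24 hrs) NIH 3T3 cells expressing F508del are pretreated with potentiators, dye-loaded, then stimulated with forskolin under a chloride ion gradient using chloride-free gluconate bath.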
For `CC(C)COc1cc(F)cc(-c2ccc(C(=O)NS(=O)(=O)c3cccc(N)n3)c(N3CCC(C)(C)[C@@H]3C)n2)c1` [Compound 1144, N-[(6-amino-2-pyridyl)sulfonyl]-6-(3-fluoro-5-isobutoxy-phenyl)-2-[(2S)-2,3,3-trimethylpyrrolidin-1-yl]pyridine-3-carboxamide], the EC30 was “+++ (“+++” means <3 uM)”. For `CC(C)COc1cc(F)cc(-c2ccc(C(=O)NS(=O)(=O)N3CC4CC4(N)C3)c(N3C[C@@H](C)CC3(C)C)n2)c1` (stereo partly drawn) [Compound 1521, N-[(5-amino-3-azabicyclo[3.1.0]hexan-3-yl)sulfonyl]-6-(3-fluoro-5-isobutoxy-phenyl)-2-[(4S)-2,2,4-trimethylpyrrolidin-1-yl]pyridine-3-carboxamide], the EC30 was “+++ (“+++” means <3 uM)”. In the case of `CC(C)COc1cc(F)cc(-c2ccc(C(=O)NS(=O)(=O)c3cccc(N)n3)c(OC3CCOCC3)n2)c1` [Compound 1324, N-[(6-amino-2-pyridyl)sulfonyl]-6-(3-fluoro-5-isobutoxy-phenyl)-2-tetrahydropyran-4-yloxy-pyridine-3-carboxamide], the EC30 is reported as “+++ (“+++” means <3 uM)”. In the case of `CCOc1cccc2c1CN(Cc1c(C)cc(C)cc1C)C2(C)C(=O)NS(=O)(=O)c1ccc(Cl)c(N)n1` (stereo not shown) [Compound 1596, N-[(6-amino-5-chloro-2-pyridyl)sulfonyl]-4-ethoxy-1-methyl-2-[(2,4,6-trimethylphenyl)methyl]isoindoline-1-carboxamide], the EC30 is reported as “+++ (“+++” means <3 uM)”. `C[C@@H]1CN(c2nc([C@H]3CC[C@H](C(F)(F)F)CC3)ccc2C(=O)NS(=O)(=O)c2ccc[nH]c2=O)C(C)(C)C1` [Compound 1710, N-[(2-oxo-1H-pyridin-3-yl)sulfonyl]-6-[4-(trifluoromethyl)cyclohexyl]-2-[(4S)-2,2,4-trimethylpyrrolidin-1-yl]pyridine-3-carboxamide] was tested, and the EC30 was “+++ (“+++” means <3 uM)”. In the case of `CC(C)COc1cc(F)cc(-c2ccc(C(=O)NS(=O)(=O)c3cccc(N)n3)c(N3CC(C)CC34CC4)n2)c1` (stereo not shown) [Compound 1754, N-[(6-amino-2-pyridyl)sulfonyl]-6-(3-fluoro-5-isobutoxy-phenyl)-2-(5-methyl-7-azaspiro[2.4]heptan-7-yl)pyridine-3-carboxamide], the EC30 is reported as “+++ (“+++” means <3 uM)”. For `CC(C)COc1cc(F)cc(-c2ccc(C(=O)NS(=O)(=O)c3cccc(O)c3)c(N3C[C@@H](C)CC3(C)C)n2)c1` [Compound 1885, 6-(3-fluoro-5-isobutoxy-phenyl)-N-(3-hydroxyphenyl)sulfonyl-2-[(4S)-2,2,4-trimethylpyrrolidin-1-yl]pyridine-3-carboxamide], the EC30 was “+++ (“+++” means <3 uM)”. With `CC(C)COc1cc(-c2ccc(C(=O)NS(=O)(=O)c3cccc(N)n3)c(N3CC(C)CC3(C)C)n2)ccn1` (stereo not shown) [Compound 1192, N-[(6-amino-2-pyridyl)sulfonyl]-6-(2-isobutoxy-4-pyridyl)-2-(2,2,4-trimethylpyrrolidin-1-yl)pyridine-3-carboxamide] the EC30 was “+++ (“+++” means <3 uM)”. For `CCC/C=C/c1cc(C(=O)NS(=O)(=O)c2cccc(N)n2)c(N2C[C@@H](C)CC2(C)C)nc1C(C)(C)C` [Compound 1617, N-[(6-amino-2-pyridyl)sulfonyl]-6-tert-butyl-5-[(E)-pent-1-enyl]-2-[(4S)-2,2,4-trimethylpyrrolidin-1-yl]pyridine-3-carboxamide], the EC30 was “+++ (“+++” means <3 uM)”. In the case of `COc1ccccc1-c1ccc(C(=O)NS(=O)(=O)c2cccnc2N)c(N2C[C@@H](C)CC2(C)C)n1` [Compound 1962, N-[(2-amino-3-pyridyl)sulfonyl]-6-(2-methoxyphenyl)-2-[(4S)-2,2,4-trimethylpyrrolidin-1-yl]pyridine-3-carboxamide], the EC30 is reported as “+++ (“+++” means <3 uM)”. For `COc1cccc(-c2ccc(C(=O)NS(=O)(=O)c3ccn[nH]3)c(N3[C@H](C)CC[C@@H]3C)n2)n1` [Compound 1236, 2-[(2S,5R)-2,5-dimethylpyrrolidin-1-yl]-6-(6-methoxy-2-pyridyl)-N-(1H-pyrazol-5-ylsulfonyl)pyridine-3-carboxamide], the EC30 was “++ (“++” means between 3 uM and 10 uM)”. In the case of `Cc1cc(C)c(Oc2nc(-c3cccc4[nH]ccc34)ccc2C(=O)NS(=O)(=O)c2cccc(N)n2)c(C)c1` [Compound 977, N-[(6-amino-2-pyridyl)sulfonyl]-6-(1H-indol-4-yl)-2-(2,4,6-trimethylphenoxy)pyridine-3-carboxamide], the EC30 is reported as “++ (“++” means between 3 uM and 10 uM)”. In the case of `Cc1cc(-c2ccc(C(=O)NS(=O)(=O)c3cccnc3N)c(N3C[C@@H](C)CC3(C)C)n2)cc(C)c1O` [Compound 1923, N-[(2-amino-3-pyridyl)sulfonyl]-6-(4-hydroxy-3,5-dimethyl-phenyl)-2-[(4S)-2,2,4-trimethylpyrrolidin-1-yl]pyridine-3-carboxamide], the EC30 is reported as “++ (“++” means between 3 uM and 10 uM)”. For `CC[C@H]1CN(c2nc(-c3cc(F)cc(OCC(C)C)c3)ccc2C(=O)NS(=O)(=O)c2cccc(N)n2)C(C)(C)C1` [Compound 1611, N-[(6-amino-2-pyridyl)sulfonyl]-2-[(4R)-4-ethyl-2,2-dimethyl-pyrrolidin-1-yl]-6-(3-fluoro-5-isobutoxy-phenyl)pyridine-3-carboxamide], the EC30 was “+++ (“+++” means <3 uM)”. With `Cc1ccnc(-c2ccc(C(=O)NS(=O)(=O)c3cccc(N)n3)c(Oc3c(C)cc(C)cc3C)n2)c1` [Compound 1272, N-[(6-amino-2-pyridyl)sulfonyl]-6-(4-methyl-2-pyridyl)-2-(2,4,6-trimethylphenoxy)pyridine-3-carboxamide] the EC30 was “+++ (“+++” means <3 uM)”. For `C[C@@H]1CN(c2nc(C(C)(C)C)c(C3=CCC(C(F)(F)F)CC3)cc2C(=O)NS(=O)(=O)c2cccc(N)n2)C(C)(C)C1` (stereo partly drawn) [Compound 1380, N-[(6-amino-2-pyridyl)sulfonyl]-6-tert-butyl-5-[4-(trifluoromethyl)cyclohexen-1-yl]-2-[(4S)-2,2,4-trimethylpyrrolidin-1-yl]pyridine-3-carboxamide], the EC30 was “+++ (“+++” means <3 uM)”. With `CCOc1cccc2c1CN(Cc1c(C)cc(C)cc1C)C2(C)C(=O)NS(=O)(=O)c1cccc(F)c1OC` (stereo not shown) [Compound 1403, 4-ethoxy-N-(3-fluoro-2-methoxy-phenyl)sulfonyl-1-methyl-2-[(2,4,6-trimethylphenyl)methyl]isoindoline-1-carboxamide] the EC30 was “+++ (“+++” means <3 uM)”. `CC1CN(c2nc(C(C)(C)C)c(Br)cc2C(=O)NS(=O)(=O)c2cccc(N)n2)C(C)(C)C1` (stereo not shown) [Compound 1628, N-[(6-amino-2-pyridyl)sulfonyl]-5-bromo-6-tert-butyl-2-(2,2,4-trimethylpyrrolidin-1-yl)pyridine-3-carboxamide] was tested, and the EC30 was “+++ (“+++” means <3 uM)”. With `CC1CN(c2ncccc2C(=O)NS(=O)(=O)c2cccc(NCc3ccccc3Cl)n2)C(C)(C)C1` (stereo not shown) [Compound 1983, N—[[6-[(2-chlorophenyl)methylamino]-2-pyridyl]sulfonyl]-2-(2,2,4-trimethylpyrrolidin-1-yl)pyridine-3-carboxamide] the EC30 was “+++ (“+++” means <3 uM)”. For `CC1CN(c2ncccc2C(=O)NS(=O)(=O)c2cccc(OCC3CCCCO3)n2)C(C)(C)C1` (stereo not shown) [Compound 1939, N—[[6-(tetrahydropyran-2-ylmethoxy)-2-pyridyl]sulfonyl]-2-(2,2,4-trimethylpyrrolidin-1-yl)pyridine-3-carboxamide], the EC30 was “++ (“++” means between 3 uM and 10 uM)”. For `Cc1cc(-c2ccc(C(=O)NS(=O)(=O)c3cccnc3N)c(N3C[C@@H](C)CC3(C)C)n2)cnc1OCCOC(C)C` [Compound 1695, N-[(2-amino-3-pyridyl)sulfonyl]-6-[6-(2-isopropoxyethoxy)-5-methyl-3-pyridyl]-2-[(4S)-2,2,4-trimethylpyrrolidin-1-yl]pyridine-3-carboxamide], the EC30 was “+++ (“+++” means <3 uM)”. For `CC(C)(C)c1ccc(C(=O)NS(=O)(=O)c2cccc(N)n2)c(Oc2ccc(F)cc2F)n1` [Compound 829, N-[(6-amino-2-pyridyl)sulfonyl]-6-tert-butyl-2-(2,4-difluorophenoxy)pyridine-3-carboxamide], the EC30 was “+++ (“+++” means <3 uM)”. For `CC(C)Oc1ccc(-c2ccc(C(=O)NS(=O)(=O)c3cccc(N)n3)c(N3CCC(C)(C)CC3)n2)cn1` [Compound 1134, N-[(6-amino-2-pyridyl)sulfonyl]-2-(4,4-dimethyl-1-piperidyl)-6-(6-isopropoxy-3-pyridyl)pyridine-3-carboxamide], the EC30 was “+++ (“+++” means <3 uM)”. In the case of `C[C@@H]1CN(c2nc(-c3cccc(OCC(C)(C)C)n3)ccc2C(=O)NS(=O)(=O)c2cccc(N)n2)C(C)(C)C1` [Compound 1663, N-[(6-amino-2-pyridyl)sulfonyl]-6-[6-(2,2-dimethylpropoxy)-2-pyridyl]-2-[(4S)-2,2,4-trimethylpyrrolidin-1-yl]pyridine-3-carboxamide], the EC30 is reported as “+++ (“+++” means <3 uM)”. `Cc1cc(C)c(Oc2nc(-c3ccccc3)cc(C)c2C(=O)NS(=O)(=O)c2cccc(N)n2)c(C)c1` [Compound 1102, N-[(6-amino-2-pyridyl)sulfonyl]-4-methyl-6-phenyl-2-(2,4,6-trimethylphenoxy)pyridine-3-carboxamide] was tested, and the EC30 was “+++ (“+++” means <3 uM)”. For `Cc1cc(C)c(CN2Cc3c(O)cccc3C2(C)C(=O)NS(=O)(=O)c2cccc(N)n2)c(C)c1` (stereo not shown) [Compound 1338, N-[(6-amino-2-pyridyl)sulfonyl]-4-hydroxy-1-methyl-2-[(2,4,6-trimethylphenyl)methyl]isoindoline-1-carboxamide], the EC30 was “++ (“++” means between 3 uM and 10 uM)”. In the case of `CC1CN(c2ncccc2C(=O)NS(=O)(=O)c2cccc(N3CCN(CC4OCCO4)CC3)n2)C(C)(C)C1` (stereo not shown) [Compound 1937, N—[[6-[4-(1,3-dioxolan-2-ylmethyl)piperazin-1-yl]-2-pyridyl]sulfonyl]-2-(2,2,4-trimethylpyrrolidin-1-yl)pyridine-3-carboxamide], the EC30 is reported as “++ (“++” means between 3 uM and 10 uM)”. With `Cc1ccccc1C1CCCCCN1c1ncccc1C(=O)NS(=O)(=O)c1cccc(N)n1` (stereo not shown) [Compound 1772, N-[(6-amino-2-pyridyl)sulfonyl]-2-[2-(o-tolyl)azepan-1-yl]pyridine-3-carboxamide] the EC30 was “++ (“++” means between 3 uM and 10 uM)”.
